Results as given in US20240408218A1, “CONJUGATES OF GLUCAGON AND AMPK ACTIVATORS” (KØBENHAVNS UNIVERSITET, priority 2021, published 2024).

Experiments:
[1] = Body weight in diet-induced obesity (DIO) mice, 7 days treatment; format: in vivo; conditions: s.c. once daily
Description: C57BL6J male mice, in the following referred to as diet-induced obesity (DIO) mice, were maintained on a high-fat diet (58% energy from fat) and had, for each study, an average body weight of more than 45 gram prior to study start. Mice were either housed individually or double-housed. The mice were maintained on a 12 h dark-light cycle at 21-23° C. Compounds were administered subcutaneously once daily (between 2 pm-5 pm) and food intake (FI) and body weight (BW) measured at the corresponding time. For body composition, measures of fat and lean mass were performed prior to the study (1-3 days prior to study start) and on the final day of the study using an MRI scanner (EchoMRI). The group of mice injected with a vehicle (saline) served as the control group.

[2] = background, Myers et al. Science 2017; cited from earlier work

NC(=O)c1ncn([C@@H]2O[C@H](CO)[C@@H](O)[C@H]2O)c1N [AICAR, 5-Aminoimidazole-4-carboxamide 1-β-D-ribofuranoside, reference compound]
reduction in body weight (BW %) compared to control group ([1]; FIG. 9, conjugate 100 nmol/kg or equimolar doses): ~4%

O[C@@H]1CO[C@H]2[C@@H]1OC[C@H]2Oc1nc2c(Cl)c(-c3ccc(-c4ccccc4)cc3)cnc2[nH]1 [MK-8722, (3R,3aR,6R,6aR)-6-((6-([1,1′-biphenyl]-4-yl)-7-chloro-3H-imidazo[4,5-b]pyridin-2-yl)oxy)hexahydrofuro[3,2-b]furan-3-ol, reference compound]
reduction in body weight percentage (BW %) ([1]; FIG. 3, conjugate 100 nmol/kg or equimolar doses): ~4%
adverse effect halting use of the compound [2]: induction of cardiac hypertrophy
